We go through 23 compounds from patent US20230312605A1, “PYRROLO[2,1-F][1,2,4]TRIAZINES AND PREPARATION AND USES THEREOF” (BioSplice Therapeutics, Inc., priority 2021, published 2023).

In assay [1] the test system is Tau phosphorylation at Thr212 (pThr212) in HEK293T cells transfected with DYRK1A and MAPT. The assay can be described thus: phosphoTau (Thr212) AlphaLISA tau phosphorylation cell assay. It counts as cell-based. To be noted: HEK-293T, HEK293T cells transiently transfected with human DYRK1A and MAPT, compound treatment 18-24 hours, read-out: pTau (Thr212) EC50. The method, then:
Representative compounds were screened using the assay procedure for tau phosphorylation activity described below.
HEK293T cells (ATCC, CRL3216) cultured in DMEM (Thermo Fisher Scientific, 10566024) supplemented with 10% FBS (Corning, 35-011-CV) and Penicillin/Streptomycin (Thermo Fisher Scientific, 15140163) were seeded in a 75 cm^2 flask at 8.1 × 10^6 cells/flask. The HEK293T cells were then transiently transfected with 5 µg DYRK1A (NM_001396) human untagged clone (OriGene, SC314641) and 2.5 µg MAPT (441 a.a. Tau gene) (NM_005910) human untagged clone (OriGene, TP313312) using Lipofectamine 3000 (Thermo Fisher Scientific, L30000015) and incubated for 20-30 hours in a humidified incubator at 37° C. and 5% CO^2. Post-incubation, HEK293T cells transfected with the DYRK1A and MAPT expression vectors were harvested and seeded in BioCoat poly-D lysine coated 96-well plates (Corning, 354461) at 3 × 10^4 cells/well.
The above synthesized compounds were screened using the cell assay procedure to assess decreased Tau phosphorylation at Thr212 (pThr212) described below.
Each compound was dissolved in DMSO (Sigma-Aldrich, D8418-100 mL) as a 10 mM stock. 10 mM stocks were serially diluted 1:3, 10-point dose-response curve and added to the cells with a final concentration ranging from 20 µM to 1.1 nM. Cells were treated with compounds in duplicate and incubated for 18-24 hours in a humidified incubator at 37° C. and 5% CO^2.
Following the overnight compound treatment, cells were lysed with 1X Alpha Surefire Ultra Lysis Buffer (Perkin Elmer, ALSU-LB-100ML) complemented with 1X Halt Phosphatase Inhibitor Cocktail (Thermo Fisher Scientific, 78427) and 1X Halt Protease Inhibitor Cocktail (Thermo Fisher Scientific, 78438). Lysates were spun down at 12,000 g for 10 min to remove any cellular debris and 5 µL of lysates were dispensed into a 384-well Opti-Plate (Perkin Elmer, 6007290) for the measurement of Tau phosphorylation in the phosphoTau (Thr212) AlphaLISA assay. Donor antibody, biotinylated HT7Tau (Thermo Fisher Scientific, MN1000B), and acceptor antibody, pThr212Tau (Thermo Fisher Scientific, 44740G) were both added to the cell lysates at a final concentration of 3 nM and incubated for 1 hour at room temperature. Following incubation of the lysates with the donor and acceptor antibodies, anti-rabbit IgG(Fc specific) AlphaLISA acceptor beads (Perkin Elmer, AL104C) were added at a 10 ug/mL final concentration and incubated for 1 hour at room temperature protected from light. Lastly, AlphaScreen streptavidin donor beads (PerkinElmer, 6760002) were added at 40 ug/mL final concentration and incubated for 1 hour at room temperature protected from light. Plates were read at Ex= […], and Em=615 nm on the EnVision Multilabel Plate Reader (Perkin Elmer)
phospho-Tau (Thr212) AlphaLISA signal was used to plot, draw the curve fitting, and determine each compound’s EC50 in Prism (GraphPad).
(In general: Alpha assays give light when donor and acceptor beads are brought close together.)

For assay [2], the target named is recombinant DYRK1A kinase (Homo sapiens (Human), UniProt Q13627). The assay can be described thus: DYRK1A kinase assay (Ser/Thr 18 peptide Z-lyte FRET assay). It counts as biochemical. To be noted: recombinant DYRK1A 0.25 µg/mL, ATP 15 µM, Ser/Thr peptide 18 4 µM, one hour at room temperature; table head prints EC50, method says IC50. The essentials:
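Recombinant human DYRK1A (0.25 µg/mL) with 15 µM ATP and 4 µM Ser/Thr 18 peptide was incubated 1 h at room temperature with compound (11-point, 10 µM top), in duplicate. Z-lyte FRET read-out (coumarin/fluorescein emission ratio) was converted to percent phosphorylation; IC50 from non-linear regression.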

As to `CO[C@H]1CC[C@@H](Nc2ncc3c(-c4ccc5nccnc5c4)ccn3n2)CC1` [Compound 1395, N-(cis-4-Methoxycyclohexyl)-5-(quinoxalin-6-yl)pyrrolo[2,1-f][1,2,4] triazin-2-amine], the figures for the EC50 in assay [1] and in assay [2] were 380 nM and 11 nM, respectively.
The corresponding values for `Cc1nc2ccc(-c3ccn4nc(NCC(C)(C)F)ncc34)nc2n1C(C)C` [Compound 1801, N-(2-Fluoro-2-methylpropyl)-5-(3-isopropyl-2-methyl-3H-imidazo[4,5-b]pyridin-5-yl)pyrrolo [2,1-f][1,2,4]triazin-2-amine] are 152 nM and 5 nM.
Take `CC(C)(F)CNc1ncc2c(-c3ccc4nccn4c3)ccn2n1` [Compound 3, N-(2-Fluoro-2-methylpropyl)-5-(imidazo[1,2-a]pyridin-6-yl)pyrrolo[2,1-f] [1,2,4]triazin-2-amine]: the 50% effective concentration (EC50) in assay [1] was 1840 nM; in assay [2], 23 nM.
The matching figures for `FC1(F)CC2(CC(Nc3ncc4c(-c5cnc6nccn6c5)ccn4n3)C2)C1` [Compound 281, N-(6,6-Difluorospiro[3.3]heptan-2-yl)-5-(imidazo[1,2-a]pyrimidin-6-yl) pyrrolo[2,1-f] [1,2,4]triazin-2-amine]: 70 nM and 3 nM.
Regarding `CC(C)(F)CNc1ncc2c(-c3cnc4nccn4c3)ccn2n1` [Compound 216, N-(2-Fluoro-2-methylpropyl)-5-(imidazo[1,2-a]pyrimidin-6-yl)pyrrolo[2,1-f] [1,2,4]triazin-2-amine], the EC50 in assay [1] is 455 nM; in assay [2] it was 12 nM.
The matching figures for `O[C@H]1C[C@@H](Nc2ncc3c(-c4ccc5nccnc5c4)ccn3n2)C1` [Compound 1724, cis-3-((5-(Quinoxalin-6-yl)pyrrolo [2,1-f] [1,2,4]triazin-2-yl)amino) cyclobutan-1-ol]: 305 nM and 11 nM.
The corresponding values for `Cc1nc2ccc(-c3ccn4nc(NC5CCC(F)(F)CC5)ncc34)nc2n1CCF` [Compound 1037, N-(4,4-Difluorocyclohexyl)-5-(3-(2-fluoroethyl)-2-methyl-3H-imidazo[4,5-b]pyridin-5-yl)pyrrolo[2,1-f][1,2,4]triazin-2-amine] are 403 nM and 20 nM.
For the compound `Cc1nc2ncc(-c3ccn4nc(NCC(C)(C)F)ncc34)cc2n1C(C)C` [Compound 571, N-(2-Fluoro-2-methylpropyl)-5-(1-isopropyl-2-methyl-1H-imidazo[4,5-b]pyridin-6-yl)pyrrolo[2,1-f] [1,2,4]triazin-2-amine], the values for the EC50 in assay [1] and in assay [2] were 725 nM and 11 nM, respectively.
Turning to `FC1(F)CCC(Nc2ncc3c(-c4ccc5nccn5c4)ccn3n2)CC1` [Compound 43, N-(4,4-Difluorocyclohexyl)-5-(imidazo[1,2-a]pyridin-6-yl)pyrrolo[2,1-f] [1,2,4]triazin-2-amine], the EC50 in assay [1] was determined as 504 nM; in assay [2] it was 19 nM.
The matching figures for `c1cn2cc(-c3ccn4nc(NC5CC6(COC6)C5)ncc34)cnc2n1` [Compound 282, 5-(Imidazo[1,2-a]pyrimidin-6-yl)-N-(2-oxaspiro[3.3]heptan-6-yl)pyrrolo[2,1-f][1,2,4]triazin-2-amine]: 172 nM and 7 nM.
Take `FC1(F)CC(Nc2ncc3c(-c4ccc5nccn5c4)ccn3n2)C1` [Compound 23, N-(3,3-Difluorocyclobutyl)-5-(imidazo[1,2-a]pyridin-6-yl)pyrrolo[2,1-f] [1,2,4]triazin-2-amine]: the EC50 in assay [1] amounted to 794 nM; in assay [2], 28 nM.
In the case of `c1cnc2cc(-c3ccn4nc(NC5CC6(COC6)C5)ncc34)ccc2n1` [Compound 1418, 5-(Quinoxalin-6-yl)-N-(2-oxaspiro[3.3]heptan-6-yl)pyrrolo[2,1-f][1,2,4] triazin-2-amine], the EC50 in assay [1] turned out to be 212 nM; in assay [2], 11 nM.
The matching figures for `O[C@H]1CC[C@@H](Nc2ncc3c(-c4ccc5nccnc5c4)ccn3n2)CC1` [Compound 1393, cis-4-((5-(Quinoxalin-6-yl)pyrrolo[2,1-f][1,2,4]triazin-2-yl)amino) cyclohexan-1-ol]: 718 nM and 23 nM.
The corresponding values for `CO[C@H]1CC[C@@H](Nc2ncc3c(-c4ccc5nc(C)n(CC(F)F)c5n4)ccn3n2)CC1` [Compound 1111, 5-(3-(2,2-Difluoroethyl)-2-methyl-3H-imidazo[4,5-b]pyridin-5-yl)-N-(cis-4-methoxycyclohexyl)pyrrolo[2,1-f][1,2,4]triazin-2-amine] are 71 nM and 3 nM.
The matching figures for `c1cn2cc(-c3ccn4nc(NC5COC5)ncc34)ccc2n1` [Compound 65, 5-(Imidazo[1,2-a]pyridin-6-yl)-N-(oxetan-3-yl)pyrrolo[2,1-f][1,2,4]triazin-2-amine]: 828 nM and 25 nM.
Consider `Cc1nc2ccc(-c3ccn4nc(NC5CCC(F)(F)CC5)ncc34)nc2n1CC(F)F` [Compound 1108, N-(4,4-Difluorocyclohexyl)-5-(3-(2,2-difluoroethyl)-2-methyl-3H-imidazo [4,5-b]pyridin-5-yl)pyrrolo[2,1-f][1,2,4]triazin-2-amine], for which the results for the EC50 in assay [1] and in assay [2] were 126 nM and 8 nM, respectively.
The matching figures for `FC1(CNc2ncc3c(-c4cnc5nccn5c4)ccn3n2)COC1` [Compound 228, N-((3 -Fluorooxetan-3-yl)methyl)-5-(imidazo [1,2-a]pyrimidin-6-yl)pyrrolo [2,1-f][1,2,4]triazin-2-amine]: 292 nM and 13 nM.
Turning to `Cc1nc2ncc(-c3ccn4nc(NCC(C)(C)F)ncc34)cc2n1C1CCOCC1` [Compound 784, N-(2-Fluoro-2-methylpropyl)-5-(2-methyl-1-(tetrahydro-2H-pyran-4-yl)-1H-imidazo[4,5-b]pyridin-6-yl)pyrrolo[2,1-f] [1,2,4]triazin-2-amine], the figures for the EC50 in assay [1] and in assay [2] were 516 nM and 11 nM, respectively.
The matching figures for `CO[C@H]1C[C@@H](Nc2ncc3c(-c4ccc5nccn5c4)ccn3n2)C1` [Compound 26, 5-(Imidazo[1,2-a]pyridin-6-yl)-N-(cis-3-methoxycyclobutyl)pyrrolo[2,1-f] [1,2,4]triazin-2-amine]: 238 nM and 11 nM.
The matching figures for `Cc1nc2ccc(-c3ccn4nc(NCC(C)(C)F)ncc34)nc2n1CC(F)F` [Compound 1068, N-(2-Fluoro-2-methylpropyl)-5-(3-(2,2-difluoroethyl)-2-methyl-3H-imidazo[4,5-b]pyridin-5-yl)pyrrolo[2,1-f][1,2,4]triazin-2-amine]: 159 nM and 4 nM.
`FC1(F)CCC(Nc2ncc3c(-c4cnc5nccn5c4)ccn3n2)CC1` [Compound 256, N-(4,4-Difluorocyclohexyl)-5-(imidazo[1,2-a]pyrimidin-6-yl)pyrrolo[2,1-f] [1,2,4]triazin-2-amine]: the EC50 in assay [1] came to 220 nM; in assay [2], 5 nM.
As for `N[C@H]1CC[C@@H](Nc2ncc3c(-c4ccc5ncccc5c4)ccn3n2)CC1` [Compound 1332, cis-N^1-(5-(Quinolin-6-yl)pyrrolo[2,1-f][1,2,4]triazin-2-yl)cyclohexane-1,4-diamine], the results for the EC50 in assay [1] and in assay [2] were 524 nM and 20 nM, respectively.
The corresponding values for `COCCn1c(C)nc2ccc(-c3ccn4nc(NC5CCC(F)(F)CC5)ncc34)nc21` [Compound 1179, N-(4,4-Difluorocyclohexyl)-5-(3-(2-methoxyethyl)-2-methyl-3H-imidazo [4,5-b]pyridin-5-yl)pyrrolo[2,1-f][1,2,4]triazin-2-amine] are 470 nM and 26 nM.

The EC50 is the concentration needed to bring the measured effect to its halfway point.
